Literature values, collected in patent US20180369129A1, “MICROBIOME-COMPATIBLE COSMETICS” (AOBIOME LLC, priority 2015, published 2018).

How the values were obtained:
NOS [1] = conditions: rat pancreatic islets; through the induction of iNOS
NOS [2] = conditions: reduction in basal NO levels

## COC(=O)[C@@H](N)CCCNC(=N)N[N+](=O)[O-] [L-NAME]
NOS [1]
  total NO production: increases total NO production
NOS [2]
  effect of chronic inhibition of NOS on heart and kidneys: generalized fibrosis of the heart and kidneys
